Data taken from patent US4175081A, “5-Substituted thiadiazole ureas” (priority 1977, dated 1979).

Assays:
[1] = tested on: Yellow foxtail grass (YF); experiment: Pre-emergence herbicide test; type: in vivo, Setaria glauca; conditions: Setaria, 336 h, 8 lb/acre, two weeks after treatment
Summary of the method: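 Visual rating of injury/control made two weeks after a pre-emergence spray of 8 or 4 lbs active per acre (38 gal/acre) onto pots seeded the previous day. Greenhouse watering by sub-irrigation only.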

Barnyard grass (BG) [2] = experiment: Post-emergence herbicide test; type: in vivo; conditions: Echinochloa crus-galli, 336 h, two weeks after treatment; for pest or weed control at 8966.8 g/ha: 8 lb/acre
Summary of the method: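 Greenhouse pot-grown barnyard grass seedlings sprayed post-emergence at 8 lbs active compound per acre (some at 4 lbs/acre) in 38 gallons per acre, then sub-irrigated. Injury or control rated visually two weeks after treatment.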

Crabgrass (CG) [3] = experiment: Post-emergence herbicide test; type: in vivo, Digitaria sanquinalis; conditions: Digitaria sanguinalis, post-emergence, 336 h, two weeks after treatment; for pest or weed control at 8966.8 g/ha: 8 lb/acre
Summary of the method: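 Crabgrass (Digitaria sanquinalis) was surface seeded individually in 3' plastic pots of potting soil, covered with screened soil, and watered by sub-irrigation in greenhouse trays. Planting was staggered so seedlings reached the target stage together. Post-emergence sprays were applied in a hood with a removable belt and fixed nozzle, and control was visually rated two weeks after treatment.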

Turnip (TP) [4] = experiment: Post-emergence herbicide test; type: in vivo, Brassica sp.; conditions: Brassica rapa, post-emergence, 336 h, two weeks after treatment; for pest or weed control at 8966.8 g/ha: 8 lb/acre
Summary of the method: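 A greenhouse post-emergence herbicide test on turnip. Seeds were sown on the surface of potting soil in 3' plastic pots, lightly covered with screened soil and watered from below. Planting was timed so seedlings had 1 or 2 true leaves above the cotyledons at spraying, done in a hood with a fixed nozzle. Control or injury was scored by eye after two weeks.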

Johnson grass (JG) [5] = experiment: Pre-emergence herbicide test; type: in vivo, Sorgum helepense; conditions: Sorghum halepense, 336 h, 8 lb/acre, two weeks after treatment
Summary of the method: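 Visual injury or control rating two weeks post-treatment, after pre-emergence spray of 8 or 4 lbs active per acre (38 gal/acre) onto pots sown the previous day. Greenhouse watering by sub-irrigation only.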

Barnyard grass (BG) [6] = experiment: Pre-emergence herbicide test; type: in vivo; conditions: Echinochloa crus-galli, 336 h, 8 lb/acre, two weeks after treatment
Summary of the method: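 Greenhouse pre-emergence spray test: pots seeded one day before treatment received compound at rates of 8 or 4 lb/acre (38 gal/acre). Visual injury/control scores for Echinochloa crus-galli taken at two weeks, with watering by sub-irrigation only.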

Bean (BN) [7] = experiment: Pre-emergence herbicide test; type: in vivo, Phaseolus vulgaris var. Black Valentine; conditions: Phaseolus vulgaris, 336 h, 8 lb/acre, two weeks after treatment
Summary of the method: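 Visual injury/control ratings were taken two weeks post-spray on sub-irrigated Phaseolus vulgaris var. Black Valentine. Pots were sown a day before treatment. Pre-emergence spray delivered 8 lbs actual compound per acre (or 4 lbs/acre) at 38 gallons per acre.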

Bean (BN) [8] = experiment: Post-emergence herbicide test; type: in vivo, Phaseolus vulgaris var. Black Valentine; conditions: Phaseolus vulgaris, post-emergence, 336 h, two weeks after treatment; for pest or weed control at 8966.8 g/ha: 8 lb/acre
Summary of the method: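 Bean seedlings (Phaseolus vulgaris var. Black Valentine) were grown in potting soil in 3' pots until the primary leaves expanded. They were then sprayed under a hood with a removable belt and fixed nozzle, using 50 ml formulations. Afterward they were returned to the greenhouse and watered only by sub-irrigation. Percent control was judged visually two weeks after treatment.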

Turnip (TP) [9] = experiment: Pre-emergence herbicide test; type: in vivo, Brassica sp.; conditions: Brassica rapa, pre-emergence, 336 h; 8 lb/acre; two weeks after treatment
Summary of the method: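 In this pre-emergence greenhouse test, turnip was seeded on the surface of potting soil in 3' plastic pots, lightly covered with screened soil, and watered from below. One day later the pots were sprayed in a belt-fed spray hood. Watering continued only by sub-irrigation, and percent control was visually scored two weeks after treatment.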

Crabgrass (CG) [10] = experiment: Pre-emergence herbicide test; type: in vivo, Digitaria sanquinalis; conditions: Digitaria sanguinalis, pre-emergence, 336 h; 8 lb/acre; two weeks after treatment
Summary of the method: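 Crabgrass (Digitaria sanquinalis) was surface seeded in 3' plastic pots of potting soil, covered with screened soil, and watered by sub-irrigation in greenhouse trays. Pots were seeded one day before spraying in a hood with a moving belt and fixed nozzle. Plants stayed in the greenhouse on sub-irrigation, and pre-emergence control was rated visually two weeks after treatment.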

Cotton (CT) [11] = experiment: Pre-emergence herbicide test; type: in vivo, Gossypium hirsutum var. DPL smooth leaf; conditions: Gossypium hirsutum, 336 h, 8 lb/acre, two weeks after treatment
Summary of the method: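 Visual injury/control ratings were taken at two weeks post-spray. Pots seeded a day earlier received compound pre-emergence at 8 lbs/acre, or 4 lbs/acre, in a 38 gallon/acre spray volume, and were then held in the greenhouse, watered only from below.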

Cotton (CT) [12] = experiment: Post-emergence herbicide test; type: in vivo, Gossypium hirsutum var. DPL smooth leaf; conditions: Gossypium hirsutum, post-emergence, 336 h, two weeks after treatment; for pest or weed control at 8966.8 g/ha: 8 lb/acre
Summary of the method: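 This greenhouse post-emergence test measured how well spray treatments controlled cotton. Seedlings of Gossypium hirsutum var. DPL smooth leaf, with expanded cotyledons and a first true leaf 1' in length, were sprayed with 50 ml formulations in a belt-fed spray hood. They were then returned to the greenhouse and watered only by sub-irrigation. Injury was scored visually as % control after two weeks.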

Johnson grass (JG) [13] = experiment: Post-emergence herbicide test; type: in vivo, Sorgum helepense; conditions: Sorghum halepense, 336 h, two weeks after treatment; for pest or weed control at 8966.8 g/ha: 8 lb/acre
Summary of the method: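 Visual injury or control scores taken 2 weeks after a post-emergence spray of pot-grown plants. Application was 8 lbs/acre (or 4 lbs/acre) in 38 gal/acre. Plants were held in the greenhouse with sub-irrigation only.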

[14] = tested on: Yellow foxtail grass (YF); experiment: Post-emergence herbicide test; type: in vivo, Setaria glauca; conditions: Setaria, 336 h, two weeks after treatment; for pest or weed control at 8966.8 g/ha: 8 lb/acre
Summary of the method: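 Visual rating of injury/control made 2 weeks post-spray. Seedlings at a uniform growth stage in soil-filled pots received a hood spray of 8 lbs/acre active compound, 38 gallons/acre volume, with a 4 lbs/acre rate also formulated. Watering was by sub-irrigation only.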

Corn (CN) [15] = experiment: Post-emergence herbicide test; type: in vivo; conditions: Zea mays, 336 h, two weeks after treatment; for pest or weed control at 8966.8 g/ha: 8 lb/acre
Summary of the method: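 Greenhouse seedlings grown in potting soil and sprayed post-emergence at 8 lbs compound/acre (formulations also made for 4 lbs/acre) in 38 gallons/acre spray volume. Watering by sub-irrigation only. Injury or control rated visually two weeks after treatment.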

Corn (CN) [16] = experiment: Pre-emergence herbicide test; type: in vivo; conditions: Zea mays, 336 h, 8 lb/acre, two weeks after treatment
Summary of the method: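 Visual injury/control ratings were made 2 weeks post-spray on corn pots seeded (4 seeds, seed-diameter depth) the day before treatment. Application was a belt-hood spray of 38 gal/acre delivering 8 lbs active per acre, with a 4 lbs/acre rate also formulated. Watering was by sub-irrigation throughout.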

[17] = tested on: variety of crops and weed species; experiment: Pre- and post-emergence herbicide tests, overall assessment of Tables III-VI; type: in vivo; conditions: data of Tables III-VI
Experimental: All crop and weed species were planted individually in 3' plastic pots containing potting soil. Four seeds each of corn, cotton, and snapbeans were seeded to a depth equal to the diameter of the seed. All other species were surface seeded and sprinkled with screened soil in an amount sufficient to cover the seed. Immediately after planting, all pots were watered by sub-irrigation in greenhouse trays. Pots for the pre-emergence phase were seeded one day before treatment.
Compounds were tested at rates of application equivalent to 8 lbs. of actual compound per acre in a spray volume of 38 gallons per acre. Spray hood constants required to deliver the above volume are as follows:
Two weeks after treatment, pre- and post-emergence injury or control was visually rated, and the results were as shown in the following tables. Pre-emergence data are provided in TABLE III and post-emergence data are provided in TABLE IV, for compounds having the formula illustrated in TABLE I. Correspondingly, pre-emergence and post-emergence data, respectively, are set forth in TABLES V AND VI, for compounds having the formula illustrated in TABLE II.

Amaranth pigweed (PW) [18] = experiment: Pre-emergence herbicide test; type: in vivo, Amaranthus retroflexus; conditions: 336 h, 8 lb/acre, two weeks after treatment
Summary of the method: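 Visual injury or control ratings were made at two weeks on pre-emergence pots, sub-irrigated in the greenhouse. Seeds were sown a day before a hood spray delivering 8 lbs/acre (or 4 lbs/acre) of compound in 38 gallons per acre.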

Amaranth pigweed (PW) [19] = experiment: Post-emergence herbicide test; type: in vivo, Amaranthus retroflexus; conditions: 336 h, two weeks after treatment; for pest or weed control at 8966.8 g/ha: 8 lb/acre
Summary of the method: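 Visual injury or control ratings were made two weeks after spraying, with greenhouse watering by sub-irrigation only. Treatment was post-emergence, when pigweed seedlings had 1 or 2 true leaves, at 8 lbs active compound per acre (4 lbs/acre formulations also made) in a 38 gallons-per-acre spray volume.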

Compound | pest or weed control at 8966.8 g/ha (Barnyard grass (BG) [2]) [%] | pest or weed control at 8966.8 g/ha (Crabgrass (CG) [3]) [%] | pest or weed control at 8966.8 g/ha (Turnip (TP) [4]) [%] | pest or weed control at 8966.8 g/ha (Johnson grass (JG) [5]) [%] | pest or weed control at 8966.8 g/ha (Barnyard grass (BG) [6]) [%] | pest or weed control at 8966.8 g/ha (Bean (BN) [7]) [%] | pest or weed control at 8966.8 g/ha (Bean (BN) [8]) [%] | pest or weed control at 8966.8 g/ha (Turnip (TP) [9]) [%] | pest or weed control at 8966.8 g/ha (Crabgrass (CG) [10]) [%] | pest or weed control at 8966.8 g/ha (Cotton (CT) [11]) [%] | pest or weed control at 8966.8 g/ha (Cotton (CT) [12]) [%] | pest or weed control at 8966.8 g/ha (Johnson grass (JG) [13]) [%] | pest or weed control at 8966.8 g/ha [14] [%] | pest or weed control at 8966.8 g/ha (Corn (CN) [15]) [%] | pest or weed control at 8966.8 g/ha (Corn (CN) [16]) [%] | herbicidal effectiveness / selectivity, in words [17] | pest or weed control at 8966.8 g/ha (Amaranth pigweed (PW) [18]) [%] | pest or weed control at 8966.8 g/ha (Amaranth pigweed (PW) [19]) [%] | other results
O=C(Nc1ccc(Cl)c(Cl)c1)Nc1nnc(C(F)(F)F)s1 [Example 16] | 20 | 20 | 40 | 10 | 10 | 80 | 40 | 30 | 10 | 30 | 20 | 20 | 20 | 20 | 30 | more selective when applied to a certain crop or weed species | – | – | pest or weed control at 8966.8 g/ha [1]: 10%
Cc1nnc(NC(=O)N(C)C)s1 [Example 19] | 10 | 20 | 50 | 20 | 10 | 80 | 50 | 20 | 10 | 30 | 40 | 20 | 20 | 20 | 80 | The converse of this relationship | 10 | 40 | –
CNC(=O)Nc1nnc(CC(C)C)s1 [Example 21] | 20 | 30 | 20 | 10 | 10 | 100 | 60 | 20 | 20 | 10 | 50 | 30 | – | 20 | 10 | more selective when applied to a certain crop or weed species | 60 | 20 | –
CNC(=O)Nc1nnc(SC)s1 [Example 26] | 60 | 100 | 100 | – | 50 | 30 | 100 | 30 | 100 | 100 | 90 | 100 | 90 | 40 | 50 | extremely effective when applied to a variety of crops and weed species | – | 100 | pest or weed control at 2241.7 g/ha (Barnyard grass (BG) [2]; 2 lb/acre): 10%; pest or weed control at 4483.4 g/ha (Barnyard grass (BG) [2]; 4 lb/acre): 100%; pest or weed control (Crabgrass (CG) [3]; 2 lb/acre): 50%; pest or weed control at 4483.4 g/ha (Crabgrass (CG) [3]; 4 lb/acre): 100%; pest or weed control at 2241.7 g/ha (Turnip (TP) [4]; 2 lb/acre): 60%; pest or weed control at 4483.4 g/ha (Turnip (TP) [4]; 4 lb/acre): 100%; pest or weed control at 2241.7 g/ha (Bean (BN) [8]; 2 lb/acre): 100%; pest or weed control at 4483.4 g/ha (Bean (BN) [8]; 4 lb/acre): 100%; pest or weed control at 2241.7 g/ha (Amaranth pigweed (PW) [19]; 2 lb/acre): 90%; pest or weed control at 4483.4 g/ha (Amaranth pigweed (PW) [19]; 4 lb/acre): 100%; pest or weed control at 2241.7 g/ha (Cotton (CT) [12]; 2 lb/acre): 100%; pest or weed control at 4483.4 g/ha (Cotton (CT) [12]; 4 lb/acre): 90%; pest or weed control (Johnson grass (JG) [13]; 2 lb/acre): 30%; pest or weed control at 4483.4 g/ha (Johnson grass (JG) [13]; 4 lb/acre): 80%; pest or weed control ([14]; 2 lb/acre): 60%; pest or weed control at 4483.4 g/ha ([14]; 4 lb/acre): 100%; pest or weed control (Corn (CN) [15]; 2 lb/acre): 20%; pest or weed control at 4483.4 g/ha (Corn (CN) [15]; 4 lb/acre): 100%
